The target of data set [1] is T1, hNav1.5 (Homo sapiens, UniProt Q14524).
T1 construct: expressed in transfected cells; host or cells: HEK293
The data set is described as follows: Tonic block of hNav1.5 currents, whole-cell patch clamp in transfected HEK293 cells. It counts as cell-based. The note with it: for Kd: test pulse −10 mV at 0.2 Hz, room temperature, read-out: Kd of tonic block (Hill fit). As for the experimental part:
(§1) The plasmid DNA of hNav1.5 in pTracer was used (gift from Dirk Isbrandt, Hamburg, Germany) for mutagenesis of F1760A (Qickchange XL kit, Qiagen GmbH, Hilden) and was performed according to the instructions of the manufacturer. HEK293 cells were maintained in Dulbecco’s Modified Eagle’s Medium (Invitrogen, Carlsbad, CA), supplemented with 10% fetal bovine serum, 100 U/ml penicillin and 100 µg/ml streptomycin, and incubated at 37°C with 5% CO2. […] Cells were transfected at 40–70% confluency using Nanofectin (PAA Laboratories GmbH, Pasching, Austria), according to manufacturer’s instructions, with 1 µg of hNav1.5 or the F1760A mutant of hNav1.5 and 0.5 µg EGFP, and distributed onto several 35 mm dishes on the following day. […] Only cells with robust green fluorescence were included in the analysis.
Whole-cell patch-clamp experiments were performed at room temperature using an Axopatch 200A operated by Clampex 9.2 software (Axon Instruments, Molecular Devices, USA) and 1–2 MΩ glass electrodes (WPI Inc, USA). […] All reagents were purchased from Sigma Chemical Company (Deisenhofen, Germany) unless otherwise noted. The tip of a constantly running gravity-driven perfusion system was positioned close to the recorded cell and drugs were applied by switching to bath solution containing the indicated concentration. […] Capacitive transients were cancelled, and series resistances (<5 MΩ) were compensated by 65–95%. Leak currents were subtracted digitally online using the P/4 procedure following the test pulses except for recordings of use dependency, where no leak correction was used. Currents were filtered at 10 kHz and sampled at 100 kHz, except for steady-state fast inactivation, where a sampling rate of 20 kHz was used.Recordings were obtained 4 min after establishing the whole-cell configuration. […] The block occurring 15 pulses after BPA or ETOH application (Ipost/Ipre = [drawing 1] ) was used as indicator for tonic block. The resulting single dose response data were fitted with a Hill function using a Levenberg-Marquard algorithm of Origin’s non linear curve fitter, where start and end were set to 0 and 1, respectively.
A general note: In patch-clamp work, channel activity is measured electrically.

Data set [2] has as its target T2, F1760A mutant of hNav1.5 (Homo sapiens, UniProt Q14524, F1760A).
T2 construct: expressed in transfected cells; host or cells: HEK293
As to the kind of experiment: Tonic block of F1760A mutant hNav1.5 currents, whole-cell patch clamp in transfected HEK293 cells. Type of data set: cell-based. The conditions noted are these: Vhold −120 mV, tested every 5 s, read-out: Kd of tonic block (Hill fit). As for the experimental part:
as §1
Whole-cell patch-clamp experiments were performed at room temperature using an Axopatch 200A operated by Clampex 9.2 software (Axon Instruments, Molecular Devices, USA) and 1–2 MΩ glass electrodes (WPI Inc, USA). […] All reagents were purchased from Sigma Chemical Company (Deisenhofen, Germany) unless otherwise noted. The tip of a constantly running gravity-driven perfusion system was positioned close to the recorded cell and drugs were applied by switching to bath solution containing the indicated concentration. […]

Data set [3] deals with T1, hNav1.5. As to the kind of experiment: Voltage dependence of steady-state fast inactivation of hNav1.5, whole-cell patch clamp. It counts as cell-based. As for the experimental part:
Whole-cell patch-clamp experiments were performed at room temperature using an Axopatch 200A operated by Clampex 9.2 software (Axon Instruments, Molecular Devices, USA) and 1–2 MΩ glass electrodes (WPI Inc, USA). […] All reagents were purchased from Sigma Chemical Company (Deisenhofen, Germany) unless otherwise noted. The tip of a constantly running gravity-driven perfusion system was positioned close to the recorded cell and drugs were applied by switching to bath solution containing the indicated concentration. […] Capacitive transients were cancelled, and series resistances (<5 MΩ) were compensated by 65–95%. Leak currents were subtracted digitally online using the P/4 procedure following the test pulses except for recordings of use dependency, where no leak correction was used. […] Fitting parameters (Kd) are given as best fit ± standard error.

For data set [4], the target named is T1, hNav1.5. The data set is described as follows: Activation and current decay of hNav1.5, whole-cell patch clamp. It counts as cell-based. The note with it: post 100 µM BPA. As for the experimental part:
. The sodium channel conductance GNa was calculated using the following equation: […]
where INa is the amplitude of the current at the voltage Vm, and Erev is the reversal potential for sodium, which was determined for each cell individually. Activation curves were derived by plotting normalized GNa as a function of test potential and fitted using the Boltzmann equation: […]
where GNa,Max is the maximum conductance, Vhalf is the membrane potential at half-maximal activation, Vm is the membrane voltage and k is the slope factor.
Decay time constants were determined by fitting current recordings at test pulses to −10 mV for 40 ms from peak with a single exponential fit.

The target of data set [5] is T1, hNav1.5. As to the kind of experiment: Dissociation constants for resting (Kr) and inactivated (Ki) hNav1.5 channels, whole-cell patch clamp. It counts as cell-based. The conditions noted are these: determined with 30 µM drug; read-out: Kr, dissociation constant for resting channels. As for the experimental part:
The dissociation constant for the resting channels, Kr, of the applied drugs were determined according to [17], [18]: with [drug] being the drug concentration present and Brest being the detected block of resting channels. […] This potential was determined for each cell individually by the above described protocol for steady-state fast inactivation.

Data set [6] addresses T1, hNav1.5. The data set is described as follows: Use-dependent current decline of hNav1.5, repetitive pulsing, whole-cell patch clamp. It counts as cell-based. The note with it: for use-dependent block: 30 µM, WT hNav1.5, Vhold −120 mV. The source says: […] Current responses were normalized to the first recorded pulse and the available currents at the 30th pulses were compared.

Data set [7] addresses T2, F1760A mutant of hNav1.5. The data set is described as follows: Use-dependent current decline of F1760A mutant hNav1.5, repetitive pulsing, whole-cell patch clamp. Type of data set: cell-based. As to the method:
The plasmid DNA of hNav1.5 in pTracer was used (gift from Dirk Isbrandt, Hamburg, Germany) for mutagenesis of […] kit, Qiagen GmbH, Hilden) and was performed according to the instructions of the manufacturer. HEK293 cells were maintained in Dulbecco's Modified Eagle's Medium (Invitrogen, Carlsbad, CA), supplemented with 10% fetal bovine serum, 100 U/ml penicillin and 100 μg/ml streptomycin, and incubated at 37°C with 5% CO2. Briefly, HEK293 cells were plated at low density on 35 mm dishes 24 hours before transfection. […] Electrophysiology was performed 18-28 hours following transfections. Only cells with robust green fluorescence were included in the analysis.

Details of data set [8]: method as in PMID 12387626. The conditions noted are these: cited from earlier work.
For data set [9] the following is noted: cited from earlier work.

Some results are limits rather than exact numbers.

T2 sequence (Q14524 whole entry F1760A): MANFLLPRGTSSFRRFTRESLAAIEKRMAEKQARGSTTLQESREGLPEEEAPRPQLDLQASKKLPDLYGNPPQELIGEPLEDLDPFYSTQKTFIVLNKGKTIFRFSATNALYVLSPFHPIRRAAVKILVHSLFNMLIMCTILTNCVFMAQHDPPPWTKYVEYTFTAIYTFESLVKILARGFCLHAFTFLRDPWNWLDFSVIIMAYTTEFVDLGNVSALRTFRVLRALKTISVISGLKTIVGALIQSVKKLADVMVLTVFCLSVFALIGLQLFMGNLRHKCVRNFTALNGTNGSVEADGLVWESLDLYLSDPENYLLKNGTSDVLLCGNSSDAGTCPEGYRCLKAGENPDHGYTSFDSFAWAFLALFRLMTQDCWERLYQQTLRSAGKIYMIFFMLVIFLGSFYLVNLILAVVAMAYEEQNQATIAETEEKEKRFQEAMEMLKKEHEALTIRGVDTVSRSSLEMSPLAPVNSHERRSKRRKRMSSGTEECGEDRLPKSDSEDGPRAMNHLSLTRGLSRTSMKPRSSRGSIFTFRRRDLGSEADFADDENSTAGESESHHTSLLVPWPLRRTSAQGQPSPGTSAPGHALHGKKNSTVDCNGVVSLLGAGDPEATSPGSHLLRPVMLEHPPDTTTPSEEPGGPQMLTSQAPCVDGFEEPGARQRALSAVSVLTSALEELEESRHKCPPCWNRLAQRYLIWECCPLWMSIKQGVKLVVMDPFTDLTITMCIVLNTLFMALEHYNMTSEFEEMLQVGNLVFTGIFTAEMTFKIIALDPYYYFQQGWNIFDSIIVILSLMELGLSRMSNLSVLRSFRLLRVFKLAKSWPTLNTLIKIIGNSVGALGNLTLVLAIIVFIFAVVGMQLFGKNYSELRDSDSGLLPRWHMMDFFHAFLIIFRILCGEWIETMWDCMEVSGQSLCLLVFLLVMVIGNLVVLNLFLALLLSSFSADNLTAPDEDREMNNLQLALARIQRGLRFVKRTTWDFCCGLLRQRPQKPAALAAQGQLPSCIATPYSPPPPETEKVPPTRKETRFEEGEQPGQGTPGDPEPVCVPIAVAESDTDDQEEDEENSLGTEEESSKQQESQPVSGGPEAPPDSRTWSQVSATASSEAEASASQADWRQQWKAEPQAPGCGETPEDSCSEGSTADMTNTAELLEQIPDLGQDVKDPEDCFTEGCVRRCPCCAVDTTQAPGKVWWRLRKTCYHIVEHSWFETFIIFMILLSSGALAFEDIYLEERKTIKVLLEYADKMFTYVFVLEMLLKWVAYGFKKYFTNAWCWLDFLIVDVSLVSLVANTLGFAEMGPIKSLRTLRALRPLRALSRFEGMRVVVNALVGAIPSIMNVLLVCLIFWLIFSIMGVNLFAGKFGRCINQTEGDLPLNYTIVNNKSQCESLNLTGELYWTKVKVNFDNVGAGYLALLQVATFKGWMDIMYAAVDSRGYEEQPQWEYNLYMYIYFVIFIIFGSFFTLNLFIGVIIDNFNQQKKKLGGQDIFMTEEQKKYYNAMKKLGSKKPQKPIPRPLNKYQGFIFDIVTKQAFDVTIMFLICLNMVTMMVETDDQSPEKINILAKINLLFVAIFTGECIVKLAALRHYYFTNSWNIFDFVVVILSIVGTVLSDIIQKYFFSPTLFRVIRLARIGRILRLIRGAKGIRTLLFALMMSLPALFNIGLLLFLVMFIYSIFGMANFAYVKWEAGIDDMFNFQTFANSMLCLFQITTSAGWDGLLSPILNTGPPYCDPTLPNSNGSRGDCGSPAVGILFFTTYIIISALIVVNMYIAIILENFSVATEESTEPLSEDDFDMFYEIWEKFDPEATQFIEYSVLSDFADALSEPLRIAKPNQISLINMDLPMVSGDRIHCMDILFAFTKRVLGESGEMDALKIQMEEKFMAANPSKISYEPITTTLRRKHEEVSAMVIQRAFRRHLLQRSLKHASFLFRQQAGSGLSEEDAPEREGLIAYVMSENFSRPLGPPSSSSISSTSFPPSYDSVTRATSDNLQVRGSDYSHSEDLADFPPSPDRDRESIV
T1 sequence (Q14524 whole entry): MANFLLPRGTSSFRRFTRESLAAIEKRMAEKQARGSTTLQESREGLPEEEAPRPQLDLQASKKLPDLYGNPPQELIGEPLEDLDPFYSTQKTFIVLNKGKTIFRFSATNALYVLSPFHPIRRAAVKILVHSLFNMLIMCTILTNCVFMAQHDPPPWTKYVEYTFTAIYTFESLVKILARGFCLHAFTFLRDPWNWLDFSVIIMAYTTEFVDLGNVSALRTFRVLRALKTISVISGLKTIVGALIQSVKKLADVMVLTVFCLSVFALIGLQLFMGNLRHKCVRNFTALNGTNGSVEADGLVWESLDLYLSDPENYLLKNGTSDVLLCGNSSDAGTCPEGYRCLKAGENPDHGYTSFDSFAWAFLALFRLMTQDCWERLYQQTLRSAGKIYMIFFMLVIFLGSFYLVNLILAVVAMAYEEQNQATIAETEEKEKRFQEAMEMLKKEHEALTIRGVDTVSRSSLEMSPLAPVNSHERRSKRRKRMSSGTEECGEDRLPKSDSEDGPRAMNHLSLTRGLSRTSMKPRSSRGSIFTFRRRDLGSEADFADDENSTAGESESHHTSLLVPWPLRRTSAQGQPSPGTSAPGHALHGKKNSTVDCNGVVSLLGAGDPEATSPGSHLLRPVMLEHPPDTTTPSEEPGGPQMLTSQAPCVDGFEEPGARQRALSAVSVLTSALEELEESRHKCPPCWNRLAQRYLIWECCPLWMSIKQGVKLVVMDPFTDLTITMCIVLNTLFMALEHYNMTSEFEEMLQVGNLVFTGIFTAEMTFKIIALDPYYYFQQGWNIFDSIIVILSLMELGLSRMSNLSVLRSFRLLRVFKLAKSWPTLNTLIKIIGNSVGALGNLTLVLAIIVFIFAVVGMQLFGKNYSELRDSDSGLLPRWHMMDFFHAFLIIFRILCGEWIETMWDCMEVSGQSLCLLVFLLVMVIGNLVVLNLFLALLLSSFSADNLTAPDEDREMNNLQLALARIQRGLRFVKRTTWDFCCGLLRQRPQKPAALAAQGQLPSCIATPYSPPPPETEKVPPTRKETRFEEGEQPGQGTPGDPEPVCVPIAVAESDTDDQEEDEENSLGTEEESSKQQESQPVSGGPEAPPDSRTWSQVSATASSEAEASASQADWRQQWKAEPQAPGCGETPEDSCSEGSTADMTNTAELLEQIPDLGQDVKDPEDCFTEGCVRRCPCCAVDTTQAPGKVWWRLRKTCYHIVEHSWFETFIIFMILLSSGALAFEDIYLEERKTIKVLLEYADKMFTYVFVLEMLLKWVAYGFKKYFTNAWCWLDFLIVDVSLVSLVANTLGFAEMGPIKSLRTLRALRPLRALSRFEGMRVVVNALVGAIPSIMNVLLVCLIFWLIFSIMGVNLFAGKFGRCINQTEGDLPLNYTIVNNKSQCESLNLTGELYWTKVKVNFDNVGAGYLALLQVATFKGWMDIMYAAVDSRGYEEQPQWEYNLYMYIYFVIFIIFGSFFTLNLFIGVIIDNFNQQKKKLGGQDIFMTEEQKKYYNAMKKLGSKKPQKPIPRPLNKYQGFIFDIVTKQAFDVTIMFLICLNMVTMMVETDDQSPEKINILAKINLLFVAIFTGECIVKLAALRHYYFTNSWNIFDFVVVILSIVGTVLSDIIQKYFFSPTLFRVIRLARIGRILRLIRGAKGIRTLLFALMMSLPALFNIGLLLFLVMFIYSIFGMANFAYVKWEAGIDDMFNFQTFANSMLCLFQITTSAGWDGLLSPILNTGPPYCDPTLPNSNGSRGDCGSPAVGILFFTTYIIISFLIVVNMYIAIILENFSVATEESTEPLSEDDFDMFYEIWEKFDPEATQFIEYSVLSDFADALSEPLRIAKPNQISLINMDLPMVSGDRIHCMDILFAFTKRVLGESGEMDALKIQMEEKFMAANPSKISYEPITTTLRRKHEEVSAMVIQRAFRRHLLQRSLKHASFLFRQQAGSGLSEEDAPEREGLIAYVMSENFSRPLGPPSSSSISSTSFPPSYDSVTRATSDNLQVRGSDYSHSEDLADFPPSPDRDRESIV

Consider `CC(C)(c1ccc(O)cc1)c1ccc(O)cc1` [BPA, Bisphenol A], for which the Kd came to 25.4 ± 1.3 µM on hNav1.5 [1] (WT hNav1.5, Vhold −90 mV); 74 ± 7.6 µM on hNav1.5 [1] (WT hNav1.5, Vhold −120 mV); 104 ± 6.7 µM on F1760A mutant of hNav1.5 [2]; 58.6 ± 8 µM on hNav1.5 [5]. Further, on hNav1.5 [1] (tonic block), the “lowest concentration tested at which hNav1.5 currents were not affected (no effect level, NOEL)” value is 100 nM. In addition, the “lowest concentration to have a significant effect on hNav1.5” value on hNav1.5 [1] (tonic block, Fig. 1A) is 1 µM. Besides, on hNav1.5 [3] (100 µM, n = 9), the “hyperpolarizing shift of Vhalf of steady-state fast inactivation” value came to 15.8±1.1 mV. Besides, the “slope factor k of steady-state fast inactivation” value at hNav1.5 [3] (post application of 100 µM BPA, pre 5.6±0.3) came to 6.5±0.2. Also, the “Vhalf of steady-state fast inactivation” value on hNav1.5 [3] (post application of 100 µM BPA, pre −89.3±1.5 mV, n = 9) is reported as −105.1±2.1 mV. The “τ of single exponential fit of current decay” value on hNav1.5 [4] (test pulse to −10 mV, pre 1.1±0.08 ms) stood at 1.13 ± 0.1 ms. In addition, the Vhalf of activation at hNav1.5 [4] (pre −32.0±2.5 mV) is −32.9±3.7 mV. At hNav1.5 [6], the use-dependent block entry is “significant use-dependent block”. At hNav1.5 [6] (all frequencies tested (1 to 100 Hz), WT hNav1.5), the use-dependent current decline result was “enhance use-dependent current decline”. For the same compound, at F1760A mutant of hNav1.5 [7] (30 µM), the “use-dependent block in F1760A compared to WT” value was “robustly reduced”. The “half-life in the body” value in data set [8] is less than 6 h. Also, in [9], the “mean human blood levels” value is recorded as approximately 10 nM. Further, in data set [9] (human), the “highest reported blood level” value is 290 nM.
Regarding `Cc1cccc(C)c1OCC(C)N` (centres unmarked) [mexiletine, reference compound], the tonic block result on hNav1.5 [1] (30 µM, WT hNav1.5) is “almost absent”. In addition, the use-dependent block entry on hNav1.5 [6] was “significant use-dependent block”. The “tonic and use-dependent block in F1760A compared to WT” value at F1760A mutant of hNav1.5 [7] (150 µM) was “reduced tonic and use-dependent block”.

The record behind these values is paper PMC3407203, “Bisphenol A Binds to the Local Anesthetic Receptor Site to Block the Human Cardiac Sodium Channel” (PLoS ONE, 2012).
